Experimental data: patent US20220257595A1, “MACITENTAN FOR USE IN TREATING PORTOPULMONARY HYPERTENSION” (ACTELION PHARMACEUTICALS LTD, priority 2019, published 2022)

How the values were obtained:
[1] = system: endothelin A and B receptors; details: nonclinical in vivo studies; cited from earlier work
[2] = system: patients with PoPH; experiment: PORTICO: serum NT-proBNP (incl. post-hoc 300 ng/L threshold shift); assay type: in vivo, human
Procedure: (v) Serum NT-proBNP: A blood sample was drawn at Baseline (Visit 2/Randomization), EOT-DB, and/or EOT-OL (whichever came last) for the analysis of serum NT-proBNP. Serum NT-proBNP samples were shipped to the central laboratory on dry ice as soon as possible after the blood sample had been drawn or stored frozen at −20° C. (−4° F.)±2° C. (±3.6° F.) until the shipment.
Statistical analysis: The change from baseline to Week 12 in mRAP, mPAP, cardiac index, TPR and SVO2 were analyzed on the FAS (with imputation) using an ANCOVA with factors for treatment group, background PAH-specific therapy at baseline (Yes/No as per IXRS, randomization stratification factor), region (Europe/North America/Latin America as per IXRS, randomization stratification factor) and a covariate for baseline corresponding variable. Other RHC variables are listed only. WHO FC is summarized on the FAS (with imputation) by time point and treatment group using frequency tables. […] Worsening was analyzed using a logistic regression model (exact) with covariates for treatment group, background PAH-specific therapy at baseline (Yes/No as per IXRS, randomization stratification factor) and region (Europe/North America/Latin America as per IXRS, randomization stratification factor). […] Change from baseline in 6MWD (up to Week 12) was analyzed using a mixed-effect model repeated measure (MMRM) with factors for treatment group, time point, treatment by time interaction, background PAH-specific therapy at baseline (Yes/No as per IXRS, randomization stratification factor) and region (Europe/North America/Latin America as per IXRS, randomization stratification factor), and covariates for baseline 6MWD and WHO FC. […] The ratio versus baseline in NT-proBNP was log-transformed and analyzed using an ANCOVA with covariates for treatment group, background PAH-specific therapy at baseline (Yes/No as per IXRS, randomization stratification factor), region (Europe/North America/Latin America as per IXRS, randomization stratification factor) and baseline log NT-proBNP. […]

[3] = system: patients with PoPH; experiment: Post-hoc: MELD exception eligibility (mPAP/PVR); assay type: in vivo, human
Procedure: Post-Hoc, Exploratory Criteria: • Proportion of patients with NT-proBNP decrease from above 300 ng/L to below this threshold • Odds ratio for improvement to a more favorable liver transplant perioperative risk category • Odds ratio for becoming eligible for the MELD exception • Odds ratio for improvement to a more favorable waitlist mortality risk category
Risk categories related to liver transplant (transplant perioperative risk classification, MELD exception eligibility and waitlist mortality risk) were analyzed descriptively by treatment group using shift tables from baseline to Week 12 with categories as defined in Example 1.
LT perioperative risk classification, MELD exception eligibility, and waitlist mortality analyses were performed after the database lock and SDTMs delivery for the Double-Blind period. Number (%) of patients in following categories were summarized and presented in shift tables. The estimated odds ratio for risk improvement and corresponding 95% confidence intervals were obtained from an exact logistic regression (macitentan vs placebo) with factors for treatment and risk category at baseline.
In general, liver grafts are attributed in priority to patients who need a liver transplant the most urgently. This assessment lies mostly on the Model for End-stage Liver Disease (MELD) score: the higher the score, the higher the patient's priority on the waiting list. In PoPH, by the time MELD score is high enough to obtain a liver graft, the hemodynamic state is generally too severely impaired for the procedure. In the US, a PoPH MELD exception rule (MELD exception) is in place to facilitate access to a liver graft to patients with PoPH who attain mPAP ≤[…] and PVR ≤400 dyn·sec·cm^−5 with PAH treatment. Patients are priority-ranked on the waitlist with a higher MELD score than their actual score. This allows obtaining a liver graft at a time when liver impairment is moderate, before cardiopulmonary impairment becomes a contraindication to transplant.

[4] = Total, Full analysis set, 10 mg, N = 43

CCCNS(=O)(=O)Nc1ncnc(OCCOc2ncc(Br)cn2)c1-c1ccc(Br)cc1 [macitentan, N-[5-(4-Bromophenyl)-6-[2-[(5-bromo-2-pyrimidinyl)oxy]ethoxy]-4-pyrimidinyl]-N′-propylsulfamide]
Potency compared with bosentan [1]: higher potency than bosentan | Patients with NT-proBNP above 300 ng/L at baseline decreasing to below threshold after 12 weeks ([2]; 6 of 16 macitentan patients, FAS no imputation, post-hoc): 37.5% | Geometric mean ratio of Week 12 to baseline NT-proBNP ([2]; FAS with imputation, macitentan group): 0.86 | NT pro-BNP shift: Week 12 Category 2 [2, 4]: 9 n (%) | Liver transplant (MELD exception) eligibility based on mPAP/PVR: Week 12 Category 2 (mPAP ≤ 35 and PVR ≤ 400 dyn · sec/cm^5 = NO) ([3]; Baseline Category 1 (n = 1), Full analysis set, 10 mg, N = 43): 0 n (%) | Liver transplant (MELD exception) eligibility based on mPAP/PVR: Week 12 Category 1 (mPAP ≤ 35 and PVR ≤ 400 dyn · sec/cm^5 = YES) [3, 4]: 9 n (%) | Odds of becoming eligible for the MELD exception, macitentan vs placebo ([3]; Week 12, exact logistic regression): 4.51 times | Patients not meeting MELD exception criteria at baseline who met them (mPAP ≤35 mmHg and PVR ≤400 dyn·sec·cm^−5) ([3]; after 12 weeks, FAS no imputation, 8 patients): 18.6% | Liver transplant eligibility: Between-treatment odds ratio for improvement, OR ([3]; macitentan vs placebo, exact logistic regression, 95% CI 0.822, 46.462, p-value 0.0958): 4.512
